Experimental data as given in ChEMBL document CHEMBL1201862, “PubChem BioAssay data set” (2004).
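Exposure lasted 48 hours, with cells grown in 96-well plates and compounds tested at five concentrations. GI50: concentration for 50% inhibition of growth.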 The source made the active and inactive calls. No stated cut-off is given here; in the data, active = GI50 up to about 1.1 µM and inactive = higher.

Legend:
Experiment in all cases: DTP human tumour cell line panel, 48 h
ACHN = test system: ACHN
RPMI-8226 = test system: RPMI-8226
NCI-H23 = test system: NCI-H23
UACC-257 = test system: UACC-257
SF-295 = test system: SF-295
NCI-H226 = test system: NCI-H226
IGROV-1 = test system: IGROV-1
UO-31 = test system: UO-31
SW-620 = test system: SW-620
A498 = test system: A498
U-251 = test system: U-251
SK-MEL-5 = test system: SK-MEL-5
SF-539 = test system: SF-539
HOP-62 = test system: HOP-62
HCT-116 = test system: HCT-116

Measured: GI50

O=C(O)CN(c1ccc(Cl)cc1)S(=O)(=O)c1ccccc1
inactive: ACHN > 100 µM | RPMI-8226 > 100 µM | NCI-H23 > 100 µM | UACC-257 > 100 µM | SF-295 > 100 µM | NCI-H226 > 100 µM | IGROV-1 > 100 µM | UO-31 > 100 µM | SW-620 > 100 µM | A498 > 100 µM | U-251 > 100 µM | SK-MEL-5 > 100 µM | SF-539 > 100 µM

CN1CC(=O)N(C)c2ncn(Cc3ccccc3)c2C1=O
inactive: ACHN > 100 µM | RPMI-8226 > 100 µM | NCI-H23 > 100 µM | SF-295 > 100 µM | IGROV-1 > 100 µM | UO-31 > 100 µM | SW-620 > 100 µM | A498 > 100 µM | U-251 > 100 µM | SK-MEL-5 > 100 µM | SF-539 > 100 µM

CCN(CC)c1c(C(=O)/C=C/c2ccc(OC)cc2)c(-c2ccccc2)nn(C)c1=O
inactive: ACHN 10.9 µM | NCI-H23 10.4 µM | UACC-257 19.6 µM | SF-295 21.5 µM | NCI-H226 16.1 µM | IGROV-1 19.2 µM | UO-31 36.6 µM | SW-620 26.5 µM | HOP-62 45.9 µM | A498 20.9 µM | U-251 13.5 µM | SK-MEL-5 8.41 µM | SF-539 17.1 µM

CO/C=C/c1cc2c(cc1C(OC)OC)OCO2
inactive: ACHN 83.4 µM | HCT-116 27.5 µM | NCI-H23 54 µM | UACC-257 > 100 µM | NCI-H226 57 µM | IGROV-1 60.1 µM | UO-31 26.5 µM | SW-620 50 µM | HOP-62 26.7 µM | U-251 53.3 µM | SK-MEL-5 17.4 µM | SF-539 34.7 µM

Nc1nc2c(nnn2C2C=C(CO)C(O)C2O)c(=O)[nH]1 (configuration not stated)
inactive: ACHN > 100 µM | HCT-116 > 100 µM | NCI-H23 > 100 µM | UACC-257 > 100 µM | SF-295 > 100 µM | NCI-H226 > 100 µM | IGROV-1 > 100 µM | UO-31 > 100 µM | SW-620 66.4 µM | HOP-62 > 100 µM | A498 > 100 µM | U-251 > 100 µM | SK-MEL-5 > 100 µM | SF-539 > 100 µM

Oc1ncnc2c1CCCN2
inactive: ACHN > 100 µM | HCT-116 > 100 µM | RPMI-8226 > 100 µM | NCI-H23 > 100 µM | UACC-257 > 100 µM | SF-295 > 100 µM | IGROV-1 > 100 µM | UO-31 > 100 µM | SW-620 > 100 µM | HOP-62 > 100 µM | U-251 > 100 µM | SK-MEL-5 > 100 µM

CC(C)(Oc1ccc2c(=O)cc(-c3ccccc3)oc2c1)C(=O)Nc1c(Cl)cccc1Cl
inactive: HCT-116 59.2 µM | RPMI-8226 47.8 µM | NCI-H23 > 100 µM | UACC-257 > 100 µM | SF-295 > 100 µM | IGROV-1 > 100 µM | UO-31 9.66 µM | SW-620 > 100 µM | HOP-62 > 100 µM | A498 > 100 µM | U-251 > 100 µM | SK-MEL-5 26.5 µM | SF-539 > 100 µM

Cc1ccc(Nc2ccc(Nc3ccc(C)cc3)c3c2C(=O)c2c(O)ccc(O)c2C3=O)cc1
inactive: ACHN > 100 µM | HCT-116 > 100 µM | RPMI-8226 > 100 µM | NCI-H23 > 100 µM | UACC-257 > 100 µM | SF-295 > 100 µM | IGROV-1 > 100 µM | UO-31 > 100 µM | SW-620 > 100 µM | HOP-62 > 100 µM | A498 > 100 µM | U-251 > 100 µM | SK-MEL-5 > 100 µM | SF-539 66.2 µM
